Common to all, as to assay type: cell-based
The subject of assay [1] is S. aureus. As to the kind of experiment: Disc diffusion assay (DDA) of PKZ6 and PKZ18 analogs with S. aureus. To be noted: Table 4, 150 μg/ml, ✓ = zone of inhibition observed. From the text:
(§1) The identity and purity of both PKZ 6 and 18 was confirmed by mass spectroscopy. Forty commercially available compounds chosen on the basis of initial in silico selections and similarity to our two hits were screened by disc diffusion assay (DDA) to determine their relative antibacterial activity with S. aureus. […] These 14 compounds were further evaluated by minimum inhibitory concentration assays (MIC)^41,42, and minimum bactericidal assays (MBC)^41 to confirm antibacterial activity, determine the concentration at which S. aureus growth is inhibited in liquid culture (MIC) and if they are acting as bacteriostatic or bactericidal agents (MBC). […] Representative embodiments are shown below.
All compounds were tested at a concentration of 150 μg/ml.

Assay [2] has as its system S. aureus ATCC 29213. As to the kind of experiment: Broth microdilution MIC. Particulars: Table 5 analogs, triplicate experiments, N/O = not observed at concentrations tested (512-0.25 μg/mL); for MIC: Staphylococcus aureus, ATCC29213, read-out: S. aureus MIC.
Source text: as §1
Broth microdilution assays^77, 78 were performed with B. subtilis, and S. aureus to determine the lowest compound concentration inhibiting visible growth, i.e., minimum inhibitory concentration (MIC) of the 4 original compounds. […] The insolubility of the fourth compound may account for its lack of antibacterial activity. […] The MICs of each compound are moderate.
Strains were grown on trypticase soy agar (TSA) with 5% sheep blood at 37° C. for 24 hours. Five isolated colonies were used to inoculate 5 mL cation-adjusted Mueller-Hinton broth (CAMHB) contained in a 50 mL centrifuge tube. The resulting culture was incubated shaking at 200 rpm for 3 hours at 37° C. and then diluted in CAMHB until its turbidity matched that of a 0.5 McFarland standard (OD625 0.08-0.10). After the culture had been standardized against a 0.5 McFarland standard, it was diluted 1:10 in CAMHB and then 5 μL of this dilution was added to the appropriate wells of a 96-well, flat-bottomed tissue culture plate in which each row contained a twofold dilution series of a particular compound ranging in concentration from 0.25 μg/mL to 512 μg/mL. Each plate also included a sterility control well containing CAMHB to which standardized inoculum was not added and a growth control well containing CAMHB to which 5 μL standardized inoculum was added. […] With the exception of the sterility control well, all wells were inoculated within 15 minutes of inoculum preparation to ensure that the starting concentration of bacteria in each well was approximately 5×10^5 CFU/m L. A Tecan Sunrise microplate absorbance reader was used to measure the OD620 of each well before and after 20 h incubation at 37° C. MIC values were recorded as the lowest compound concentration at which no visible growth was observed after this incubation period.
For orientation: Broth dilution looks for growth in wells or tubes with falling amounts of substance.

For assay [3], the system named is S. aureus ATCC 29213. Kind of assay: MBC determination. Particulars: Table 5 analogs, triplicate experiments, N/O = not observed at concentrations tested (512-0.25 μg/mL).
Source text: as §1
(§2) Following 24 h incubation of these subcultures at 37° C., MBC values were recorded as the lowest compound concentration at which no viable colonies were observed.

For assay [4], the system named is E. coli ATCC 25922. Kind of assay: MBC determination. Particulars: Table 5 analogs; triplicate experiments; N/O = not observed at concentrations tested (512-0.25 μg/mL). As for the experimental part: as §2
Assay [5] relates to E. coli ATCC 25922. As to the kind of experiment: Broth microdilution MIC (Gram negative specificity control). Particulars: Table 5 analogs, triplicate experiments, N/O = not observed at concentrations tested (512-0.25 μg/mL).

≈ marks a conversion by molar mass, not a printed value.

On to `O=C(NCCN1CCNCC1)C1=C(O)C2=CC=CC3CCN(C1=O)C23` (centres unmarked) [Compound 0613], for which the ZOI observed entry in assay [1] is “✓”.

Turning to `NCCNC(=O)c1c(O)c2cccc3c2n(c1=O)CCC3` [Compound 0615], in assay [1], the ZOI observed entry is reported as “✓”.

As to `CCCCc1ccc(-c2nc(NC(=O)C3CC=CCC3C(=O)O)sc2C)cc1` (centres unmarked) [Compound 1805], the ZOI observed result in assay [1] is on record as “✓”.

With `CCCc1ccc(-c2nc(NC(=O)C3CC(C)=C(C)CC3C(=O)O)sc2C)cc1` (centres unmarked) [Compound 1808], the ZOI observed result in assay [1] was “✓”.

Regarding `CC1=C(C)CC(C(=O)Nc2nc(-c3ccc(C)cc3)c(C)s2)C(C(=O)O)C1` (centres unmarked) [Compound 1810], the ZOI observed entry in assay [1] is “✓”. Further, the MIC (in general, the least concentration at which growth counts as inhibited) was determined as 256 µg/mL (≈ 666 µM) in assay [2] and 512 µg/mL (≈ 1330 µM) in assay [5] (Escherichia coli, ATCC25922, read-out: E. coli MIC). Besides, the “S. aureus (MBC)” value in assay [3] is reported as “N/O”. Further, the “E. coli (MBC)” value in assay [4] is listed as “N/O”.

For the compound `O=C(O)C1C2CCC(C2)C1C(=O)Nc1nc(-c2cccs2)cs1` (centres unmarked) [Compound 1813], in assay [1], the ZOI observed result was “✓”. The “S. aureus MIC” value in assay [2] is reported as “N/O (N/O)”. In addition, the “S. aureus (MBC)” value in assay [3] is on record as “N/O (N/O)”. Besides, the “E. coli (MBC)” value in assay [4] was “N/O (N/O)”. Further, the “E. coli MIC” value in assay [5] is on record as “N/O (N/O)”.

Consider `O=C(O)C1C2CCC(C2)C1C(=O)Nc1nc(-c2ccc(F)cc2F)cs1` (centres unmarked) [Compound 1819], for which the ZOI observed result in assay [1] is “✓”. Moreover, the MIC in assay [2] was determined as 128 µg/mL (≈ 338 µM). Besides, in assay [3] (Staphylococcus aureus, ATCC29213, read-out: S. aureus (MBC)), the MBC – broadly, the smallest concentration meeting the test's criterion for killing – amounted to 512 µg/mL (≈ 1350 µM).

For `C[C@@H]1CC[C@@H](C)[C@H](C(=O)Nc2nc(-c3ccc(Cl)cc3Cl)cs2)C1C(=O)O` (some centres unmarked) [Compound 1820], the ZOI observed entry in assay [1] is on record as “✓”. Besides, the MIC in assay [2] turned out to be 64 µg/mL (≈ 150 µM). For the same compound, the “S. aureus (MBC)” value in assay [3] is “N/O”.

Source of the values: patent publication US10266527B2, “T-box riboswitch-binding anti-bacterial compounds” (THE RESEARCH FOUNDATION FOR THE STATE UNIVERSITY OF NEW YORK, priority 2013, dated 2019).
